Laboratory results: paper PMC12305662, “Fragment-Based Development of Small Molecule Inhibitors Targeting Mycobacterium tuberculosis Cholesterol Metabolism” (Journal of Medicinal Chemistry, 2025)
Values after ≈ are worked out from the molar mass of the structure shown. Read-outs that look alike come from different tables or passages of the source.

What was measured:
Mtb CDC1551 [1] = assay: Depletion of intracellular ATP (BacTiter Glo), Mtb on cholesterol; assay type: cell-based; conditions: Mycobacterium tuberculosis, cholesterol as sole carbon source
Mtb H37Rv [2] = assay: Extracellular Mtb growth on cholesterol, MABA MIC99; assay type: cell-based, Mycobacterium tuberculosis; conditions: cholesterol as sole carbon source, 2 weeks post-compound treatment, read-out: MABA-MIC99 (W2) H37Rv, cholesterol
Mtb CDC1551 [3] = assay: as above; assay type: cell-based, Mycobacterium tuberculosis; conditions: cholesterol as sole carbon source, 2 weeks post-compound treatment, read-out: MABA-MIC99 (W2) CDC1551, cholesterol
Mtb H37Rv [4] = assay: Depletion of intracellular ATP (BacTiter Glo), Mtb on cholesterol; assay type: cell-based, Mycobacterium tuberculosis; conditions: cholesterol as sole carbon source
CYP125 [5] = molecular target: T1, CYP125 (Mycobacterium tuberculosis, UniProt P9WPP1); assay: biochemical; assay type: binding; conditions: read-out: KD (μM) CYP125
CYP125 [6] = molecular target: T1, CYP125; assay: LC-MS substrate turnover assay (cholest-4-en-3-one); assay type: biochemical; conditions: for IC50: CYP125 0.5 μM, cholest-4-en-3-one 5 µM, LC-MS, read-out: CYP125A1 IC50; for Ki: estimated by Cheng-Prusoff, cholest-4-en-3-one Km CYP125 = 2.1 µM, read-out: CYP125A1 KI
CYP142 [7] = molecular target: T2, CYP142 (Mycobacterium tuberculosis, UniProt P9WPL5); assay: biochemical
CYP142 [8] = molecular target: T2, CYP142; conditions: for CYP142 Δλmax (nm): compound 100 µM, P450 5 µM; for Δλmax (nm) CYP142, fragment screen: fragment 1 mM, P450 4-6 µM, relative to DMSO (418.5 nm)
CYP125 [9] = molecular target: T1, CYP125; assay type: binding; conditions: for CYP125 Δλmax (nm) LS: low spin population, '-' = no LS maxima present; for Δλmax (nm) CYP125, fragment screen: fragment 1 mM, P450 4-6 µM, Soret shift relative to DMSO (393 nm)
CYP126 = CYP126 (Mycobacterium tuberculosis, UniProt P9WPN9); conditions: fragment 1 mM, P450 4-6 µM; relative to DMSO (418 nm)
CYP124 = CYP124 (Mycobacterium tuberculosis, UniProt P9WPP3); conditions: fragment 1 mM, P450 4-6 µM; relative to DMSO (419 nm)
CYP143 = CYP143 (Mycobacterium tuberculosis, UniProt P9WPL3); conditions: fragment 1 mM, P450 4-6 µM; relative to DMSO (416 nm)
CYP144 = CYP144 (Mycobacterium tuberculosis, UniProt P9WPL1); conditions: fragment 1 mM, P450 4-6 µM; relative to DMSO (421 nm)
CYP121 = CYP121 (Mycobacterium tuberculosis, UniProt P9WPP7); conditions: fragment 1 mM, P450 4-6 µM; relative to DMSO (417 nm)
[10] = CDC1551, 168 h, 1 week post-compound treatment, read-out: ATP-IC50 (W1) CDC1551, cholesterol
[11] = CDC1551, 336 h, 2 weeks post-compound treatment, read-out: ATP-IC50 (W2) CDC1551, cholesterol
[12] = Mycobacterium tuberculosis, H37RV, 336 h
[13] = Mycobacterium tuberculosis, CDC1551, 336 h
[14] = Mycobacterium tuberculosis, H37RV, 168 h, 1 week post-compound treatment, read-out: ATP-IC50 (W1) H37Rv, cholesterol
[15] = Mycobacterium tuberculosis, H37RV, 336 h, 2 weeks post-compound treatment, read-out: ATP-IC50 (W2) H37Rv, cholesterol

T1 sequence (P9WPP1 whole entry): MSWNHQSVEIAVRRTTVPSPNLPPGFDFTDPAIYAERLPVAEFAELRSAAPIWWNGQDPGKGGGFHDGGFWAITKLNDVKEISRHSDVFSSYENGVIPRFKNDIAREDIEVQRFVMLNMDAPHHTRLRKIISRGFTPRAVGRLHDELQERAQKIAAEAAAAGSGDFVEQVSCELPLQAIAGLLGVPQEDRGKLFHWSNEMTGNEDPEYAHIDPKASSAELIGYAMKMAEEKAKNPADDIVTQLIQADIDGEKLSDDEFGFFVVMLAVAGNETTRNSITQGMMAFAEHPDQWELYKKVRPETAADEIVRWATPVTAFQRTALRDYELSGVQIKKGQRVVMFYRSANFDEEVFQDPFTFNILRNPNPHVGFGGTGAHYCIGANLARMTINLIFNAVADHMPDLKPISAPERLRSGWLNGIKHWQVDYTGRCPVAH
Chain of CYP124 (P9WPP3 whole entry, the tested form may be a part): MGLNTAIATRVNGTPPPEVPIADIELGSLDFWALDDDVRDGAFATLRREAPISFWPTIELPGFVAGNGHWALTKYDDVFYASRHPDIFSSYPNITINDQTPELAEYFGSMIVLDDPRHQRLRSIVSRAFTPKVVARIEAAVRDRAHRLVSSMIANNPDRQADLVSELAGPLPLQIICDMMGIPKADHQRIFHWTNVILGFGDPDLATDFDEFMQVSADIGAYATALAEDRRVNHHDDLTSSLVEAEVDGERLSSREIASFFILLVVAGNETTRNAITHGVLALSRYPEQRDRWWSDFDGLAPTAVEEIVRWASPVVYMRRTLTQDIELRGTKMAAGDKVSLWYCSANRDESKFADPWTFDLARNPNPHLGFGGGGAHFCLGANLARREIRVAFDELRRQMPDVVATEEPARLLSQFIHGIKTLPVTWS
T2 sequence (P9WPL5 whole entry, the tested form may be a part): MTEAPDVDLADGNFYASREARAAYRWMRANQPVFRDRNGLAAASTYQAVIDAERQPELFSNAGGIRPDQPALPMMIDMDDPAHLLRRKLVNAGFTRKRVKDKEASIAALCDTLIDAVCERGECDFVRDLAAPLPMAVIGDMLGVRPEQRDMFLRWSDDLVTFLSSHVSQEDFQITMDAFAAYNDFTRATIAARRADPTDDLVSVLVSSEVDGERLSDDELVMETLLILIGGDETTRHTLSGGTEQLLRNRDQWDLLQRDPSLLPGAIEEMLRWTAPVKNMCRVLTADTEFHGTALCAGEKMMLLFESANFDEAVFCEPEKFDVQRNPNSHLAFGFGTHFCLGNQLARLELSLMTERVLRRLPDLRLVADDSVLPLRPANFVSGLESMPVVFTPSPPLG
Chain of CYP144 (P9WPL1 whole entry, the tested form may be a part): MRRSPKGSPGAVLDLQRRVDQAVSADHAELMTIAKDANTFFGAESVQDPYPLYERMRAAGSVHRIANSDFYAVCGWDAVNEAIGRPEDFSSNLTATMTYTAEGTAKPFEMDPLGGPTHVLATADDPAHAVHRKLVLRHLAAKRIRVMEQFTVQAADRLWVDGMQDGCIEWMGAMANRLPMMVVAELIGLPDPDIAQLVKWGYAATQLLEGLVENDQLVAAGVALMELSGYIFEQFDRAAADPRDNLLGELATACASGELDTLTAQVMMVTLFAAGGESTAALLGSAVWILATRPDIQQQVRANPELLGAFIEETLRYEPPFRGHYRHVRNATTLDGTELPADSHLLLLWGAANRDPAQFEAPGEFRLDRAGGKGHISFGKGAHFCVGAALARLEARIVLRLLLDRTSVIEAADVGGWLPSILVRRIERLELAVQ
Chain of CYP121 (P9WPP7 whole entry, the tested form may be a part): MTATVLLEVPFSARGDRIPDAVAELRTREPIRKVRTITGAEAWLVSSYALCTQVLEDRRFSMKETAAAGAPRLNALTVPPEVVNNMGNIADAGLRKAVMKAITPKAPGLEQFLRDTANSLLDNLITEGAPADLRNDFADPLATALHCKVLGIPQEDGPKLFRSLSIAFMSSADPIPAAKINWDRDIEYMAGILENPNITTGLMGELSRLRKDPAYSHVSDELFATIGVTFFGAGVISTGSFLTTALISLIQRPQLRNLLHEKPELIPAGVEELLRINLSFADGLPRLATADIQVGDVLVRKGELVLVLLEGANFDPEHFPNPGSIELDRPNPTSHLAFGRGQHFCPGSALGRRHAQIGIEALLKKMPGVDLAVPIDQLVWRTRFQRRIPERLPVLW
Chain of CYP126 (P9WPN9 whole entry, the tested form may be a part): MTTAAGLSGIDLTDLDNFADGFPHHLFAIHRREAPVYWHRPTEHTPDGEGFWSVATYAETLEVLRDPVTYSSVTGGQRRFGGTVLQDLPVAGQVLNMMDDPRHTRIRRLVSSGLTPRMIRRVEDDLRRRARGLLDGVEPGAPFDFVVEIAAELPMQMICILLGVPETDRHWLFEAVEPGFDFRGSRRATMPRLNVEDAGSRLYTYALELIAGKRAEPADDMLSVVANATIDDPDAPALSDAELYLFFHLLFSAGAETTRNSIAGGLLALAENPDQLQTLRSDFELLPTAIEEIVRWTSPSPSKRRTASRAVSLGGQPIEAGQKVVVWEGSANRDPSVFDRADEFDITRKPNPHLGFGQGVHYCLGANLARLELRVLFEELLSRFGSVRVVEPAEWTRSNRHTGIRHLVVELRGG
Chain of CYP143 (P9WPL3 whole entry, the tested form may be a part): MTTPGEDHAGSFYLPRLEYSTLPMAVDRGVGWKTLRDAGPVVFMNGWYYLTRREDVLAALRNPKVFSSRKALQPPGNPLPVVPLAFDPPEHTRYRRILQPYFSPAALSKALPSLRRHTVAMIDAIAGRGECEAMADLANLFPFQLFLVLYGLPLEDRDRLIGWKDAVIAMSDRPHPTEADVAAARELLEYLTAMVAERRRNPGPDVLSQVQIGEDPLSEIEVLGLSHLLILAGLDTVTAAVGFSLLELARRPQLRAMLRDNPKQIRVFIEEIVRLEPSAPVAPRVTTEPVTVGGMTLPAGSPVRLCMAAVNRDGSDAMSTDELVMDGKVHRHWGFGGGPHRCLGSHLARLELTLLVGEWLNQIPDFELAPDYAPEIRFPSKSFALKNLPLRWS

SMILES	MIC99 (Mtb H37Rv [2]; [12])	IC50 (Mtb H37Rv [4]; [14])	IC50 (Mtb H37Rv [4]; [15])	Kd (CYP125 [5])	IC50 (CYP125 [6])	Ki (CYP125 [6])	Δλmax (nm) CYP126, fragment screen (CYP126)	Δλmax (nm) CYP124, fragment screen (CYP124)	Δλmax (nm) CYP142, fragment screen (CYP142 [8])	Δλmax (nm) CYP125, fragment screen (CYP125 [9])	Δλmax (nm) CYP143, fragment screen (CYP143)	Δλmax (nm) CYP144, fragment screen (CYP144)	Δλmax (nm) CYP121, fragment screen (CYP121)	other results
O=C(Nc1ccc(Cc2ccncc2)cc1)c1ccccc1 [5a, N-(4-(Pyridin-4-ylmethyl)phenyl)benzamide]	25 µM (≈ 7.21 µg/mL)	19 µM	38 µM	0.54 ± 0.22 µM	4.3 ± 0.5 µM	1.3 µM	–	–	–	–	–	–	–	IC50 (Mtb CDC1551 [1]; [10]): 19 µM; IC50 (Mtb CDC1551 [1]; [11]): 38 µM; MIC99 (Mtb CDC1551 [3]; [13]): > 50 µM; MIC99 (Mtb CDC1551 [3]): >50 µM; Kd (CYP142 [7]): 1.1 ± 0.1 µM
CC(=O)Nc1ccc(Cc2ccncc2)cc1 [3f, N-(4-(Pyridin-4-ylmethyl)phenyl)acetamide]	–	–	–	18 ± 0.56 µM	–	–	–	–	–	–	–	–	–	CYP142 Δλmax (nm) (CYP142 [8]): 2 nm; CYP125 Δλmax (nm) LS (CYP125 [9]; compound 100 µM, P450 5 µM): 13 nm; Kd (CYP142 [7]): 1.4 ± 0.36 µM
CS(=O)(=O)Nc1ccc(Cc2ccncc2)cc1 [3g]	–	–	–	0.23 ± 0.04 µM	–	–	–	–	–	–	–	–	–	CYP142 Δλmax (nm) (CYP142 [8]): 0 nm; CYP125 Δλmax (nm) LS (CYP125 [9]; compound 100 µM, P450 5 µM): 30 nm; CYP125 LS/HS (CYP125 [9]; compound 100 µM, P450 5 µM, ratio of low spin to high spin CYP125): 2.7; Kd (CYP142 [7]): 1.1 ± 0.14 µM
COc1ccc(CNc2ccc(N(C)c3ccncc3)cc2)cc1 [5n, N^1-(4-Methoxybenzyl)-N^4-methyl-N^4-(pyridin-4-yl)benzene-1,4-diamine]	50 µM (≈ 16 µg/mL)	4.7 µM	9.4 µM	2.9 ± 0.2 µM	12 ± 1.2 µM	3.6 µM	–	–	–	–	–	–	–	Kd (CYP142 [7]): 0.2 ± 0.01 µM
COc1ccc(CNc2cccc(Cc3ccncc3)c2)cc1 [5l, N-(4-Methoxybenzyl)-3-(pyridin-4-ylmethyl)aniline]	19 µM (≈ 5.78 µg/mL)	0.59 µM	2.3 µM	6.4 ± 1.1 µM	18 ± 1.9 µM	5.4 µM	–	–	–	–	–	–	–	–
CN(c1ccncc1)c1ccc(NC(=O)c2ccccc2)cc1 [5c, N-(4-(Methyl(pyridin-4-yl)amino)phenyl)benzamide]	> 50 µM	9.4 µM	19 µM	7 ± 0.21 µM	26 ± 2.4 µM	7.7 µM	–	–	–	–	–	–	–	MIC99 (Mtb H37Rv [2]): >50 µM; Kd (CYP142 [7]): 3.1 ± 0.18 µM
O=C(NCc1ccc2[nH]ccc2c1)c1cccc(Cc2ccncc2)c1 [5e, N-((1H-Indol-5-yl)methyl)-3-(pyridin-4-ylmethyl)benzamide]	13 µM (≈ 4.44 µg/mL)	2.3 µM	19 µM	4 ± 0.36 µM	9.2 ± 0.89 µM	2.7 µM	–	–	–	–	–	–	–	IC50 (Mtb CDC1551 [1]; [10]): 0.07 µM; IC50 (Mtb CDC1551 [1]; [11]): 19 µM; MIC99 (Mtb CDC1551 [3]; [13]): 6.3 µM (≈ 2.15 µg/mL)
c1ccc(Cc2ccncc2)cc1 [1a]	–	–	–	180 ± 6.7 µM	–	–	–	–	–	–	–	–	–	CYP125 Δλmax (nm) HS (CYP125 [9]; compound 100 µM, P450 5 µM, high spin population, '-' = no HS maxima present): 2 nm; CYP125 Δλmax (nm) LS (CYP125 [9]; compound 100 µM, P450 5 µM): 27 nm
O=C(Nc1ccc(Nc2ccncc2)cc1)c1ccccc1 [5b, N-(4-(Pyridin-4-ylamino)phenyl)benzamide]	–	–	–	11 ± 1.8 µM	–	–	–	–	–	–	–	–	–	Kd (CYP142 [7]): 2.83 ± 0.001 µM
O=C(O)c1cccc(O)n1 [compound 30]	–	–	–	–	–	–	0 nm	0 nm	0 nm	0 nm	1 nm	0 nm	0 nm	–
O=C(O)CCc1ccccc1 [compound 36]	–	–	–	–	–	–	2 nm	0 nm	0 nm	0 nm	1 nm	0 nm	0 nm	–
COc1ccc(C(C)=O)cn1 [compound 31]	–	–	–	–	–	–	0 nm	0 nm	0 nm	0 nm	0.5 nm	0 nm	0 nm	–
O=C(O)c1ccnn1-c1ccccc1 [compound 51]	–	–	–	–	–	–	0 nm	0 nm	0 nm	0 nm	0.5 nm	0 nm	-1 nm	–
Cn1nc(C(=O)O)cc1-c1ccccc1 [compound 70]	–	–	–	–	–	–	0 nm	2 nm	0 nm	0 nm	0.5 nm	0 nm	0 nm	–
COc1ncccc1N [compound 50]	–	–	–	–	–	–	0 nm	0 nm	0 nm	0 nm	2.5 nm	0 nm	0 nm	–
Nc1ccccn1 [compound 43]	–	–	–	–	–	–	0 nm	0 nm	0 nm	0 nm	1 nm	0 nm	0 nm	–
N#Cc1ccccn1 [compound 40]	–	–	–	–	–	–	0 nm	0 nm	0 nm	0 nm	0.5 nm	0 nm	0 nm	–
CS(=O)(=O)c1cccc(CNc2ccc(Cc3ccncc3)cc2)c1 [5p, N-(3-(Methylsulfonyl)benzyl)-4-(pyridin-4-ylmethyl)aniline]	13 µM (≈ 4.58 µg/mL)	1.2 µM	4.7 µM	0.35 ± 0.19 µM	10 ± 0.95 µM	3.1 µM	–	–	–	–	–	–	–	IC50 (Mtb CDC1551 [1]; [10]): 2.3 µM; IC50 (Mtb CDC1551 [1]; [11]): 19 µM; MIC99 (Mtb CDC1551 [3]; [13]): 13 µM (≈ 4.58 µg/mL)
c1ccc(-c2ccn[nH]2)nc1 [compound 2]	–	–	–	–	–	–	0 nm	0 nm	0 nm	0 nm	0 nm	0 nm	0 nm	–
O=S(=O)(O)c1ccccn1 [compound 78]	–	–	–	–	–	–	0 nm	0 nm	0 nm	0 nm	1 nm	0 nm	0 nm	–
O=C(NCc1ccc2[nH]ccc2c1)c1cccc(Nc2ccncc2)c1 [5g, N-((1H-Indol-5-yl)methyl)-3-(pyridin-4-ylamino)benzamide]	13 µM (≈ 4.45 µg/mL)	< 5 µM	9.4 µM	3.8 ± 0.18 µM	25 ± 2.4 µM	7.1 µM	–	–	–	–	–	–	–	IC50 (Mtb CDC1551 [1]; [10]): 9.4 µM; IC50 (Mtb CDC1551 [1]; [11]): 38 µM; MIC99 (Mtb CDC1551 [3]; [13]): 25 µM (≈ 8.56 µg/mL); IC50 (Mtb H37Rv [4]; 1 week post-compound treatment, read-out: ATP-IC50 (W1) H37Rv, cholesterol): 4.7 µM
Cc1ccc(=O)[nH]n1 [compound 7]	–	–	–	–	–	–	0 nm	0 nm	0 nm	0 nm	0 nm	0 nm	0 nm	–
